In patent US20120088827A1 (Profectus Biosciences, Inc., priority 2009, published 2012):
pEC50, pIC50: −log10 of the molar value. Like-named read-outs stand apart in the source and are kept apart here.

Tests used:
[1] = test system: NF-κB driven transcription (pTRH1-NF-κB-dscGFP reporter, 293 cells); experiment: NF-kB/293/GFP reporter cell assay; type: cell-based; settings: Homo sapiens, HEK293; compound 2 hours, then 20 ng/ml TNF-α for 18 hours; fluorescence
Protocol: (§1) Two reporter cell assays were used to determine the ability of the compounds of Examples 1-12 to inhibit NF-κB driven transcription. The first assay was a 293-cell based assay with a stably integrated pNF-κB-luc reporter plasmid containing 3 NF-κB promoter elements. The second assay was a 293-cell based assay with a stably integrated pTRH1-NF-κB-dscGFP reporter containing 4 NF-κB promoter elements. Cells were treated with 0, 0.2, 1, 10, 20 and 40 μM of the compounds of Example 1-12 for 2 hours then were induced with 20 ng/ml TNF-α for 18 hours. Following the induction, luminescence or fluorescence was quantified using a Beckman-Coulter 2300 plate reader. […] As a control, 0.5% DMSO treated and untreated cells were compared to verify that the compounds of Examples 1-12 had no effect on the expression of luciferase or in the readout of the assay. There was a slight decrease in the output from the assay in the DMSO treated population although it was not statistically significant. As a result of the controls, the decrease in activity in the drug treated samples was compared to the DMSO control sample.

[2] = test system: NF-κB driven transcription (pNF-κB-luc reporter, 293 cells); experiment: 293/NF-kB-luc reporter cell assay; type: cell-based; settings: Homo sapiens; compound 2 hours, then 20 ng/ml TNF-α for 18 hours; luminescence
Protocol: as §1

IL-6 = experiment: Inhibition of IL-6 release in LPS-stimulated RAW 264.7 cells; type: cell-based; settings: Mus musculus, RAW264.7; pretreated 2 hours, 1 μg/mL LPS 20-24 hours
Protocol: RAW 264.7 cells were seeded at 4×10^4 cells per well in complete growth medium in 96 well white TC plates with clear bottoms one day prior to the assay. The next day the cells were washed once and 100 μL fresh growth media was added. Cells were pretreated with 0.5 μL from a 6 point 200× dilution series of the test compounds in DMSO for 2 hours. Following pretreatment with the drugs, the inflammatory response was induced by adding 5 μL of a 20 μg/mL solution of LPS (Sigma). The cells were incubated in the presence of the drugs and 1 μg/mL LPS for another 20-24 hours. Typically after treatment the total DMSO was […] of the culture volume and the final concentrations of the compounds were approximately: 40, 20, 10, 1, 0.2 and 0 μM depending on the MW of each compound. Modified dilution series were prepared as needed to get adequate dose response curves without changing the % DMSO. Samples were run in duplicate or triplicate and included DMSO treated control wells with and without LPS stimulation. Drugs with a known activity such as Parthenolide or DHMEQ were run as experimental controls. After 20-24 hours LPS activation, the media supernatant was collected from the cells and replaced with fresh media. The supernatant samples were cleared by centrifugation at 1,000×g for 5 minutes, transferred to fresh storage plates, and stored frozen at −30° C.
After determining the appropriate supernatant dilutions experimentally, mIL-6 levels in the supernatants were quantified using Quantikine™ mouse IL-6 Immunoassay (R&D Systems) according to the manufacturer's protocol. Approximately 50 μL of the supernatants diluted in Calibrator Diluent were added to 50 μL of Assay Diluent in microplate wells pre-coated with an anti-mouse IL-6 capture antibody. Controls included a calibrated positive IL-6 control sample, non-specific binding (NSB) wells containing Calibrator Diluent but no IL-6, and a recombinant mouse IL-6 standard dilution series (10-1000 pg/mL). The plates were incubated at room temperature for 2 hours with shaking and then washed 5 times with 400 μL 1× Wash Buffer. Approximately 100 μL of an HRP-conjugated anti-mouse IL-6 antibody was added to each well to detect IL-6 captured on the plate. The plates were incubated at room temperature for 2 hours and then washed 5 times with 400 μl 1× Wash Buffer. Equal volumes of Color Reagents A and B were mixed and 100 μL of this HRP Substrate Solution was added to each well on the plate. The blue color was allowed to develop for 30 minutes and then the reaction was stopped using 100 μL of Stop Solution yielding a yellow color. Absorbance at 450 nm with a reference wavelength subtracted at 595 nm was recorded using a Becton-Dickinson DTX 880 Multimode Detector.
The concentration of mIL-6 in the unknown samples was determined from a curve-fit of the mIL-6 standard absorbance data and multiplying by the dilution factor. The maximum activity achieved in the absence of the inhibitor (DMSO+LPS treated wells) was arbitrarily given a value of 100%; likewise the minimum activity in the absence of the stimulant (no LPS) was assigned a value of 0% Inhibition of the amount of mIL-6 cytokine released in the drug treated wells was calculated relative to the maximum activation in the DMSO+LPS treated control wells (i.e., % inhibition=100−(drug+LPS treated)/(DMSO+LPS treated)). Dose response curves were used to determine the effective concentration to inhibit 50% of the mIL-6 cytokine released (IC50) by means of a SigmaPlot macro which fits a sigmoidal dose-response curve to the (log 10) μM concentration versus % inhibition. […] This technique yields an objective value for the IC50 provided that 50% inhibition was approached at the concentrations tested.

NF-κB p65 = target: T1, NF-κB p65 (Homo sapiens, UniProt Q04206); experiment: TransAM NF-κB Family DNA Binding ELISA, p65
T1 construct: purchased Active Motif
Protocol: The binding activity of NF-κB heterodimer or homodimer subunits from activated nuclear extracts or purified recombinant NF-κB proteins exposed to the drug compounds was evaluated using the TransAM NF-κB Family binding ELISA (Active Motif). Approximately 3-5 μg of nuclear extracts from TNFα activated Hela or Raji cells (Active Motif) or 20 ng of purified recombinant proteins (p65 and p50 from Active Motif, p52 from Santa Cruz) were incubated for 1 hour at room temperature with 20 μL drug compounds diluted in Complete Lysis buffer without DTT. Treated samples were then transferred to 30 μL Complete Binding Buffer (with DTT) in microplate wells pre-coated with the NF-κB consensus oligonucleotide. […] The plate was incubated for 1 hour at room temperature with gentle shaking and then washed 3 times with 200 μL 1× Wash Buffer. NF-κB p65, p50, p52, RelB, or c-Rel subunits bound to the plate were detected with 100 μL of the primary antibody (diluted 1:1000 in 1× Antibody Buffer) specific for that subunit. The plate was incubated for 1 hour at room temperature and then washed 3 times with 200 μL 1× Wash Buffer. Next, 100 μL of a HRP conjugated goat anti-rabbit antibody (diluted 1:1,000 in 1× Antibody Buffer) was added to each well. The plate was incubated for 1 hour at room temperature and then washed 4 times with 200 μL 1× Wash Buffer. 100 μL of room temperature Developing Solution was added to each well. The reaction was allowed to develop for 2-10 minutes until a medium dark blue color developed (depending on the subunit activity in the lot of extract or lot of recombinant protein used) and then the reaction was stopped with 100 μL Stop Solution yielding a yellow color. Absorbance was recorded using a Becton-Dickinson DTX 880 Multimode Detector at 450 nm with a reference wavelength subtracted at 620 nm.

[3] = binding to NF-κB consensus oligonucleotide, read-out: p65 binding IC50

T1 sequence (Q04206 whole entry): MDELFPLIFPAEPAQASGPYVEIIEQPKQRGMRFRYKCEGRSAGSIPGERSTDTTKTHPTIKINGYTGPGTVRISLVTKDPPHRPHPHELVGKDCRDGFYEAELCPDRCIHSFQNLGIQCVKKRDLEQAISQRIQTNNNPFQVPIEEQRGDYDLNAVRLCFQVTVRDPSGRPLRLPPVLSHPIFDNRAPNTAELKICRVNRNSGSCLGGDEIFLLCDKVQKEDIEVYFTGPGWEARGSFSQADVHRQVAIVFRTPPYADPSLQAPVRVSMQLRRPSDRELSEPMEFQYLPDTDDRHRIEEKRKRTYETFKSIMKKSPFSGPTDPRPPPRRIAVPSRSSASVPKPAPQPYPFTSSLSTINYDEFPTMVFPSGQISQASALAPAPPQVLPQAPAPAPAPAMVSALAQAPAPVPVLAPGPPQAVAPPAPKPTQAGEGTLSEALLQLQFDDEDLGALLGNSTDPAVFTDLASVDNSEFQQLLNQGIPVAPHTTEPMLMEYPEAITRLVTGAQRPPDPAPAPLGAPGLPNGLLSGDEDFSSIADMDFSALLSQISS

SMILES	pEC50 [1]	pEC50 [2]	pEC50 (IL-6)	pIC50 (NF-κB p65; [3])	pIC50 (NF-κB p65)
O=C(NC1=CC(=O)C2OC2C1O)c1ccccc1OP(=O)(OCc1ccccc1)OCc1ccccc1 (racemic) [Example 12, (±)-dibenzyl 2-(2-hydroxy-5-oxo-7-oxabicyclo[4.1.0]hept-3-en-3-ylcarbamoyl)phenyl phosphate]	< 4.59	< 4.59	< 4.59	< 3.49	
CCOP(=O)(OCC)Oc1ccccc1C(=O)NC1=CC(=O)C2OC2C1O (racemic) [Example 10, (±)-diethyl 2-(2-hydroxy-5-oxo-7-oxabicyclo[4.1.0]hept-3-en-3-ylcarbamoyl)phenyl phosphate]	4.89	4.62	5.22		4.23
CC(C)(C)CC(=O)Oc1ccccc1C(=O)NC1=CC(=O)C2OC2C1OC(=O)CC(C)(C)C (racemic) [Example 9, (±)-2-(2-(3,3-dimethylbutanoyloxy)-5-oxo-7-oxabicyclo[4.1.0]hept-3-en-3-ylcarbamoyl)phenyl 3,3-dimethylbutanoate]	4.80	4.82	5.85	3.94	
O=C(Nc1ccccc1)OC1C(NC(=O)c2ccccc2O)=CC(=O)C2OC21 (racemic) [Example 11, (±)-3-(2-hydroxybenzamido)-5-oxo-7-oxabicyclo[4.1.0]hept-3-en-2-yl phenylcarbamate]	5.37	5.48	6.06	5.14	
